Reference: patent US20240117385A1, “ENZYMES OF LUCIFERIN BIOSYNTHESIS AND USE THEREOF” (LIGHT BIO, INC., priority 2018, published 2024)

Legend:
HEK293NT cells = experiment: Luminescence of HEK293NT cells expressing hispidin hydroxylase and luciferase on adding hispidin; format: cell-based, human; settings: hispidin 800 μg/ml, 24 hours after transfection
[1] = system: recombinant hispidin hydroxylase from Neonothopanus nambi; experiment: HPLC analysis of hydroxylation by recombinant hispidin hydroxylase; format: biochemical; settings: 0.2 μM substrate, 1 mM NADPH, 30 minutes
Protocol: The isolated recombinant hispidin hydroxylase from Neonothopanus nambi, obtained according to Example 4, was added to reaction mixtures comprising 1 mM of NADPH and 0.2 μM of hispidin, (E)-4-hydroxy-6-styryl-2H-pyran-2-one or (E)-4-hydroxy-6-(4-hydroxystyryl)-2H-pyran-2-one in 100 μl of the buffer (0.2 M of Na-phosphate buffer, 0.5 M of Na2SO4, 0.1% dodecylmaltoside (DDM) pH 8.0). In 30 minutes, the reaction mixture was analyzed by HPLC using synthetic luciferins as standards.

[2] = system: hispidin hydroxylase and luciferase fusion protein; experiment: Bioluminescence of HEK293T cells expressing hispidin hydroxylase and luciferase fusion protein; format: cell-based, Neonothopanus nambi; settings: 24 hours after transfection, 1 million of cells in 0.5 ml PBS; hispidin 10 μg per 1 million of cells
Description: Humanized DNA sequences coding hispidin-hydroxylase and luciferase of Neonothopanus nambi, obtained according to Example 2, were operatively cross-linked to each other by flexible short peptide linker with amino acid sequence GGSGGSGGS (SEQ ID NOs:115). Nucleotide and amino acid sequences of the obtained fused protein are shown in SEQ ID NO 101 and 102. Nucleic acid coding fused protein was cloned into pEGFP-N1 vector (Clontech, USA) instead of EGFP gene under Cytomegaloviral promoter control. The obtained structure was transfected into HEK293T cells. Analogous vectors, comprising individual genes of hispidin hydroxylase and luciferase, were also co-transfected. Transfection was performed by transfection agent FuGENE HD (Promega, USA) according to the manufacturer's protocol. 24 hours after transfection 1 million of cells were resuspended in 0.5 ml of PBS, and luminescence without adding hispidin and with addition of hispidin (10 μg per 1 million of cells) was recorded by luminometer.

[3] = system: Neonothopanus nambi hispidin hydroxylase and luciferase; experiment: Bioluminescence reaction of biosynthetic hispidin; format: biochemical; settings: hispidin purified from fermenter medium by HPLC
Protocol: The obtained E. coli strain was used for producing hispidin. At the first step the bacteria were incubated in five 50 ml plastic tubes in LB medium within 10 hours at 200 rpm fluctuation at 37° C. 250 ml of the obtained culture were added to 3.3 litres of fermentation medium into a fermenter Biostat B5 (Braun, Germany) so that initial culture optical density at 600 nm was about 0.35. Fermentation medium comprised 10 g/l of peptone, 5 g/l of caffeic acid, 5 g/l of yeast extract, 10 g/l of NaCl, 25 g/l of glucose, 15 g/l of (NH4)2SO4, 2 g/l of KH2PO4, 2 g/l of MgSO4·7 H2O, 14.7 mg/l of CaCl2), 0.1 mg/l of thiamine, 1.8 mg/l and 0.1% of the solution composed of: EDTA 8 mg/l, CoCl2·6 H2O 2.5 mg/l, MnCl2·4H2O 15 mg/l, CuCl2·2H2O 1.5 mg/l, H3BO3 3 mg/l, Na2MoO4·2H2O 2.5 mg/l, Zn(CH3COO)2·2H2O 13 mg/l, iron (III) citrate 100 mg/l, thiamine hydrochloride 4.5 mg/l. Fermentation was carried out at 37° C., with 3 l/min aeration and 200 rpm mixing. After 25 hours of cultivation arabinose was added to the culture up to final concentration of 0.1 mM. pH was automatically controlled by adding of NH4OH, […] pH to 7.0. […]

O=c1cc(O)cc(/C=C/c2ccc(O)c(O)c2)o1 [hispidin, (E)-6-(3,4-dihydroxystyryl)-4-hydroxy-2H-pyran-2-one]
luminescence intensity exceeding the signal from untransfected control cells (HEK293NT cells): more than by two orders of magnitude | HPLC detection of hydroxylated product [1]: occurrence of peaks corresponding to 3d position hydroxylated derivatives | cell luminescence on addition [2]: caused cell luminescence in green spectrum | activity in bioluminescence reaction [3]: active in bioluminescence reaction
